From PubChem BioAssay (NCI)
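GI50 marks 50% less growth. TGI denotes the concentration required for complete inhibition of growth.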

Key:
Assay in all cases: NCI tumour cell line growth inhibition, 384-well format
LOX IMVI melanoma = test system: LOX IMVI melanoma
T-47D breast = test system: T-47D breast
SF-539 CNS = test system: SF-539 CNS
SK-MEL-5 melanoma = test system: SK-MEL-5 melanoma
KM12 colon = test system: KM12 colon
HCT-116 colon = test system: HCT-116 colon
OVCAR-5 ovarian = test system: OVCAR-5 ovarian
BT-549 breast = test system: BT-549 breast
UACC-257 melanoma = test system: UACC-257 melanoma
NCI-H460 NSCLC = test system: NCI-H460 NSCLC
MDA-MB-468 breast = test system: MDA-MB-468 breast
UACC-62 melanoma = test system: UACC-62 melanoma
COLO 205 colon = test system: COLO 205 colon

Compound | GI50 (LOX IMVI melanoma) [µM] | TGI (LOX IMVI melanoma) [µM] | GI50 (T-47D breast) [µM] | TGI (T-47D breast) [µM] | GI50 (SF-539 CNS) [µM] | TGI (SF-539 CNS) [µM] | GI50 (SK-MEL-5 melanoma) [µM] | TGI (SK-MEL-5 melanoma) [µM] | GI50 (KM12 colon) [µM] | TGI (KM12 colon) [µM] | GI50 (HCT-116 colon) [µM] | TGI (HCT-116 colon) [µM] | GI50 (OVCAR-5 ovarian) [µM] | TGI (OVCAR-5 ovarian) [µM] | GI50 (BT-549 breast) [µM] | TGI (BT-549 breast) [µM] | GI50 (UACC-257 melanoma) [µM] | TGI (UACC-257 melanoma) [µM] | GI50 (NCI-H460 NSCLC) [µM] | TGI (NCI-H460 NSCLC) [µM] | further results
Cc1cc(-c2nnc(N)nc2-c2ccc(F)cc2)cc(Cl)n1 | > 100 | > 100 | 35.7 | > 100 | > 100 | > 100 | 88 | > 100 | > 87.1 | > 100 | 75.6 | > 100 | > 100 | > 100 | 88.8 | > 100 | 66.5 | > 100 | > 89.7 | > 100 | GI50 (MDA-MB-468 breast): 16.6 µM; TGI (MDA-MB-468 breast): 68.3 µM; GI50 (UACC-62 melanoma): 75.7 µM; TGI (UACC-62 melanoma): > 100 µM; GI50 (COLO 205 colon): > 100 µM; TGI (COLO 205 colon): > 100 µM
Cc1ccc(-c2nc(N)nc3c2nnn3Cc2cccc(CO[C@H]3CCOC3)n2)o1 | > 100 | > 100 | 32.4 | > 100 | > 100 | > 100 | > 53.9 | > 100 | > 100 | > 100 | > 100 | > 100 | > 100 | > 100 | > 100 | > 100 | > 100 | > 100 | > 100 | > 100 | GI50 (MDA-MB-468 breast): 35.5 µM; TGI (MDA-MB-468 breast): 99 µM; GI50 (UACC-62 melanoma): > 100 µM; TGI (UACC-62 melanoma): > 100 µM; GI50 (COLO 205 colon): > 100 µM; TGI (COLO 205 colon): > 100 µM
